Laboratory results from patent US20260159512A1, “BCAT2 INHIBITORS” (AGIOS PHARMACEUTICALS, INC., priority 2021, published 2026).

Key:
Conditions in all cases: average where tested multiple times
[1] = molecular target: T1, BCAT2 (Homo sapiens, UniProt O15382); assay: BCAT2 in vitro enzyme inhibition assay (resazurin/diaphorase-coupled fluorescence); type: biochemical
T1 sequence (O15382 28-392): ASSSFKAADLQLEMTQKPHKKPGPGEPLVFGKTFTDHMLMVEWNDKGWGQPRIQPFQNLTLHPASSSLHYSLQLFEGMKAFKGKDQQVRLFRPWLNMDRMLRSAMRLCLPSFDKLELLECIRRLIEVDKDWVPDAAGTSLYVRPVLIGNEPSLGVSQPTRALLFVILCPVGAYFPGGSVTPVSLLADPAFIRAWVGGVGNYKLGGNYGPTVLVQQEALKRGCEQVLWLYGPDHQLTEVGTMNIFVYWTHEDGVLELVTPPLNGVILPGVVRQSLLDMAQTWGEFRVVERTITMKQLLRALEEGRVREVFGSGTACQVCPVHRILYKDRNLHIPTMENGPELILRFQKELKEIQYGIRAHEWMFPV
How it was run: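 Coupled fluorescence readout: glutamate formed from L-leucine/α-ketoglutarate transamination drives GDH/NAD/diaphorase reduction of resazurin (Ex 540/Em 590). Human BCAT2 was first exposed 1 h at room temperature to compound, top final 100 μM in 3-fold, 10-point series; substrate reaction ran 1 h before SDS quench, in technical duplicate with DMSO max and enzyme-free min controls.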

[2] = molecular target: T2, hBCAT1 (Homo sapiens, UniProt P54687); assay: BCAT1 in vitro enzyme inhibition assay (resazurin/diaphorase-coupled fluorescence); type: biochemical
T2 sequence (P54687 1-386): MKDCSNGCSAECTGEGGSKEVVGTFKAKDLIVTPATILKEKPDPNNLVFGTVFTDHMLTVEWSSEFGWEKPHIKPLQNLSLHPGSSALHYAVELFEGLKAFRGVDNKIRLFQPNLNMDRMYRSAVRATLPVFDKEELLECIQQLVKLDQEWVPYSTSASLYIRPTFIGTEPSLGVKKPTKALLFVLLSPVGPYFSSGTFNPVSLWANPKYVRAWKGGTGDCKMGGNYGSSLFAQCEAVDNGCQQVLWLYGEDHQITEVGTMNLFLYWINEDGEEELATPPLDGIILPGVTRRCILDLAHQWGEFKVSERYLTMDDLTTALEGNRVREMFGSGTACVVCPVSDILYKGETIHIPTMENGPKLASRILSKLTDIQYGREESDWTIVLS
How it was run: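 Ten-point, 3-fold compound series (top final 100 μM, delivered 1:50 from 50× DMSO stocks) tested against hBCAT1. Inhibition detected via diaphorase-coupled resazurin fluorescence, duplicate wells, with values from repeated runs averaged.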

[3] = molecular target: T1, BCAT2; assay: BCAT2 in vitro cell inhibition using engineered A549 cells (KMV cell assay, 13C6-KMV by LC-MS/MS); type: cell-based; set-up: The result was an engineered A549 cell line that expressed endogenous BCAT2; endogenous in cells; host or cells: A549 cells with MUT and BCAT1 knocked out by CRISPR/CAS9

For `O=C(N[C@H]1CCC[C@@H](n2c(-c3ccccc3F)nc3cnc(N4CCCC4CO)cc32)C1)c1ncc(Cl)s1` (stereo partly drawn) [Example 196, 5-chloro-N-((1S,3R)-3-(2-(2-fluorophenyl)-6-(2-(hydroxymethyl)pyrrolidin-1-yl)-1H-imidazo[4,5-c]pyridin-1-yl)cyclohexyl)thiazole-2-carboxamide], the IC50 [1] was ≤ 100 nM, the IC50 [2] was < 500 nM and the IC50 [3] was ≤ 100 nM.

For `O=C(N[C@H]1CCC[C@@H](n2c(-c3ccccc3F)nc3cnc(N4CCC(O)C4)cc32)C1)c1ncc(Cl)s1` (stereo partly drawn) [Example 199, 5-chloro-N-((1S,3R)-3-(2-(2-fluorophenyl)-6-(3-hydroxypyrrolidin-1-yl)-1H-imidazo[4,5-c]pyridin-1-yl)cyclohexyl)thiazole-2-carboxamide], the IC50 [1] was ≤ 100 nM, the IC50 [2] was > 5000 nM and the IC50 [3] was > 1000 nM.

With `O=C(N[C@H]1CCC[C@@H](n2c(-c3ccccc3F)nc3cnc(-c4noc(=O)[nH]4)cc32)C1)c1ncc(Cl)s1` [Example 202, 5-chloro-N-((1S,3R)-3-(2-(2-fluorophenyl)-6-(5-oxo-4,5-dihydro-1,2,4-oxadiazol-3-yl)-1H-imidazo[4,5-c]pyridin-1-yl)cyclohexyl)thiazole-2-carboxamide] the IC50 [1] was ≤ 100 nM, the IC50 [2] was < 500 nM and the IC50 [3] was ≤ 100 nM.

With `O=C(N[C@H]1CCC[C@@H](n2c(-c3ccccc3F)nc3cnc(-c4n[nH]c(=O)o4)cc32)C1)c1ncc(Cl)s1` [Example 203, 5-chloro-N-((1S,3R)-3-(2-(2-fluorophenyl)-6-(5-oxo-4,5-dihydro-1,3,4-oxadiazol-2-yl)-1H-imidazo[4,5-c]pyridin-1-yl)cyclohexyl)thiazole-2-carboxamide] the IC50 [1] was ≤ 100 nM, the IC50 [2] was < 500 nM and the IC50 [3] was 100 to 500 nM.

`O=C(N[C@H]1CCC[C@@H](n2c(-c3ccccc3F)nc3cnc(-c4ccccc4)cc32)C1)c1ncc(Cl)s1` [Example 204, 5-chloro-N-((1S,3R)-3-(2-(2-fluorophenyl)-6-phenyl-1H-imidazo[4,5-c]pyridin-1-yl)cyclohexyl)thiazole-2-carboxamide] was tested, and the IC50 [1] was ≤ 100 nM, the IC50 [2] was 500 to 1000 nM and the IC50 [3] was 100 to 500 nM.

`CC(C)Cc1nc2cnc(-c3cccc(F)n3)cc2n1[C@@H]1CCC[C@H](NC(=O)c2ncc(Cl)s2)[C@H]1O` [Example 209, 5-chloro-N-((1S,2R,3R)-3-(6-(6-fluoropyridin-2-yl)-2-isobutyl-1H-imidazo[4,5-c]pyridin-1-yl)-2-hydroxycyclohexyl)thiazole-2-carboxamide] was tested, and the IC50 [1] was ≤ 100 nM, the IC50 [2] was < 500 nM and the IC50 [3] was 100 to 500 nM.

For `Cc1coc(-c2cc3c(cn2)nc(CC(C)C)n3C2CCCC(NC(=O)c3ncc(Cl)s3)C2O)n1` (stereo not drawn) [Example 211, 5-chloro-N-(2-hydroxy-3-(2-isobutyl-6-(4-methyloxazol-2-yl)-1H-imidazo[4,5-c]pyridin-1-yl)cyclohexyl)thiazole-2-carboxamide], the IC50 [1] was ≤ 100 nM, the IC50 [2] was < 500 nM and the IC50 [3] was 100 to 500 nM.

`CC(C)Cc1nc2cnc(-c3cc(C(F)(F)F)n[nH]3)cc2n1[C@@H]1CCC[C@H](NC(=O)c2ncc(Cl)s2)[C@H]1O` [Example 216, 5-chloro-N-((1S,2R,3R)-2-hydroxy-3-(2-isobutyl-6-(3-(trifluoromethyl)-1H-pyrazol-5-yl)-1H-imidazo[4,5-c]pyridin-1-yl)cyclohexyl)thiazole-2-carboxamide] was tested, and the IC50 [1] was 100 to 500 nM, the IC50 [2] was 1000 to 5000 nM and the IC50 [3] was > 1000 nM.

In the case of `O=C(NC1CCCC(n2c(-c3ncccc3F)nc3cnc(-c4ccccn4)cc32)C1O)c1ncc(Cl)s1` (stereo not drawn) [Example 220, 5-chloro-N-(3-(2-(3-fluoropyridin-2-yl)-6-(pyridin-2-yl)-1H-imidazo[4,5-c]pyridin-1-yl)-2-hydroxycyclohexyl)thiazole-2-carboxamide], the IC50 [1] is reported as ≤ 100 nM, the IC50 [2] is reported as < 500 nM and the IC50 [3] is reported as ≤ 100 nM.

With `CC(C)Cc1nc2cnc(-n3cc(F)cn3)cc2n1[C@@H]1C[C@@H](O)C[C@H](NC(=O)c2ncc(Cl)s2)C1` [Example 221, 5-chloro-N-((1R,3S,5S)-3-(6-(4-fluoro-1H-pyrazol-1-yl)-2-isobutyl-1H-imidazo[4,5-c]pyridin-1-yl)-5-hydroxycyclohexyl)thiazole-2-carboxamide] the IC50 [1] was ≤ 100 nM, the IC50 [2] was < 500 nM and the IC50 [3] was 100 to 500 nM.

For `CC(C)Cc1nc2cnc(-c3ccn(C)n3)cc2n1[C@@H]1CCC[C@H](NC(=O)c2ncc(Cl)s2)[C@H]1O` [Example 223, 5-chloro-N-((1S,2R,3R)-2-hydroxy-3-(2-isobutyl-6-(1-methyl-1H-pyrazol-3-yl)-1H-imidazo[4,5-c]pyridin-1-yl)cyclohexyl)thiazole-2-carboxamide], the IC50 [1] was ≤ 100 nM, the IC50 [2] was < 500 nM and the IC50 [3] was 100 to 500 nM.

For `CC(C)Cc1nc2cnc(-c3ccn[nH]3)cc2n1[C@@H]1CCC[C@H](NC(=O)c2ncc(Cl)s2)[C@H]1O` [Example 225, 5-chloro-N-((1S,2R,3R)-2-hydroxy-3-(2-isobutyl-6-(1H-pyrazol-5-yl)-1H-imidazo[4,5-c]pyridin-1-yl)cyclohexyl)thiazole-2-carboxamide], the IC50 [1] was ≤ 100 nM, the IC50 [2] was < 500 nM and the IC50 [3] was 100 to 500 nM.

`CC(C)Cc1nc2cnc(-n3nccn3)cc2n1[C@@H]1CCC[C@H](NC(=O)c2ncc(Cl)s2)[C@H]1O` [Example 227, 5-chloro-N-((1S,2R,3R)-2-hydroxy-3-(2-isobutyl-6-(2H-1,2,3-triazol-2-yl)-1H-imidazo[4,5-c]pyridin-1-yl)cyclohexyl)thiazole-2-carboxamide] was tested, and the IC50 [1] was ≤ 100 nM, the IC50 [2] was < 500 nM and the IC50 [3] was ≤ 100 nM.

For `CC(C)Cc1nc2cnc(-c3ccn(C(F)F)n3)cc2n1[C@@H]1CCC[C@H](NC(=O)c2ncc(Cl)s2)[C@H]1O` [Example 230, 5-chloro-N-((1S,2R,3R)-3-(6-(1-(difluoromethyl)-1H-pyrazol-3-yl)-2-isobutyl-1H-imidazo[4,5-c]pyridin-1-yl)-2-hydroxycyclohexyl)thiazole-2-carboxamide], the IC50 [1] was ≤ 100 nM, the IC50 [2] was 500 to 1000 nM and the IC50 [3] was > 1000 nM.

With `CC(C)Cc1nc2cnc(-n3cc(F)cn3)cc2n1[C@@H]1CCC[C@H](NC(=O)c2ncc(Cl)s2)[C@H]1O` [Example 232, 5-chloro-N-((1S,2R,3R)-3-(6-(4-fluoro-1H-pyrazol-1-yl)-2-isobutyl-1H-imidazo[4,5-c]pyridin-1-yl)-2-hydroxycyclohexyl)thiazole-2-carboxamide] the IC50 [1] was ≤ 100 nM, the IC50 [2] was < 500 nM and the IC50 [3] was 500 to 1000 nM.

For `CO[C@@H]1[C@@H](NC(=O)c2ncc(Cl)s2)CCC[C@H]1n1c(-c2ccccc2F)nc2cnc(-c3nc[nH]n3)cc21` [Example 234, 5-chloro-N-((1S,2R,3R)-3-(2-(2-fluorophenyl)-6-(1H-1,2,4-triazol-3-yl)-1H-imidazo[4,5-c]pyridin-1-yl)-2-methoxycyclohexyl)thiazole-2-carboxamide], the IC50 [1] was ≤ 100 nM, the IC50 [2] was 1000 to 5000 nM and the IC50 [3] was 500 to 1000 nM.

`CC(C)Cc1nc2cnc(-c3ccccn3)cc2n1[C@@H]1CCC[C@H](NC(=O)c2ncc(Cl)s2)[C@H]1O` [Example 235, 5-chloro-N-((1S,2R,3R)-2-hydroxy-3-(2-isobutyl-6-(pyridin-2-yl)-1H-imidazo[4,5-c]pyridin-1-yl)cyclohexyl)thiazole-2-carboxamide] was tested, and the IC50 [1] was ≤ 100 nM, the IC50 [2] was < 500 nM and the IC50 [3] was ≤ 100 nM.

`Cc1coc(-c2cc3c(cn2)nc(-c2ccccc2F)n3[C@@H]2CCC[C@H](NC(=O)c3ncc(Cl)s3)[C@H]2O)n1` [Example 238, 5-chloro-N-((1S,2R,3R)-3-(2-(2-fluorophenyl)-6-(4-methyloxazol-2-yl)-1H-imidazo[4,5-c]pyridin-1-yl)-2-hydroxycyclohexyl)thiazole-2-carboxamide] was tested, and the IC50 [1] was ≤ 100 nM, the IC50 [2] was < 500 nM and the IC50 [3] was ≤ 100 nM.

With `O=C(N[C@H]1CCC[C@@H](n2c(-c3ccccc3F)nc3cnc(-c4ccn[nH]4)cc32)[C@@H]1O)c1ncc(Cl)s1` [Example 240, 5-chloro-N-((1S,2R,3R)-3-(2-(2-fluorophenyl)-6-(1H-pyrazol-5-yl)-1H-imidazo[4,5-c]pyridin-1-yl)-2-hydroxycyclohexyl)thiazole-2-carboxamide] the IC50 [1] was ≤ 100 nM, the IC50 [2] was < 500 nM and the IC50 [3] was ≤ 100 nM.
